According to US7795227B2, “Compounds and methods for treating seizure disorders” (Wisconsin Alumni Research Foundation, priority 2004, dated 2010):
“And” between values parts separate entries of the source, which are not always exact repeats. Identical values can stand only once. “Also recorded” adds a separate entry of the source.

Key:
[1] = tested on: rat hippocampal slices (CA3 synchronized burst discharges); assay: Synchronized bursting induced by elevated [K+]o in hippocampal slices, CA3 extracellular recording; type: cell-based
Experimental: In these experiments, postnatal day 14 to 35 male Sprague-Dawley rats were anesthetized and decapitated. Brains were removed and transferred to ice cold artificial cerebrospinal fluid (ACSF), comprising 124 mM NaCl, 5 mM KCl, 1.25 mM NaH2PO4, 1.5 mM MgSO4, and 26 mM NaHCO3, supplemented with 10 mM glucose), which was continuously bubbled with 95% O2 and 5% CO2. Transverse hippocampal slices (˜400 microns) were prepared on a Leica VT1000s vibratome (Wetzlar Germany). The slices were allowed to recover for 1 hour at room temperature and were then transferred to an interface recording chamber at 34° C. in ACSF with 7.5 mM [K^+]o. Extracellular recordings were made from the CA3 region with an Axioclamp 2B (Axon Instruments, Forest City, Calif.) using a glass microelectrode filled with 150 mM NaCl. Data were recorded and analyzed using PClamp8 (Axon Instruments).
Synchronized bursting was induced by incubating hippocampal slices in ACSF supplemented with to a final concentration of 7.5 mM [K^+]o, Baseline recordings were obtained after exposure to elevated [K^+]o for 1 hour and the burst frequency had stabilized.
The reduction in burst frequency is shown in graphical form in FIG. 7.
The effects of glucose deprivation on synchronized burst discharges were examined in rat hippocampal slices ex corpora using the methods described in Example 2. Spontaneous synchronized bursts were recorded in CA3 in ACSF containing 10 mM glucose supplemented with 7.5 mM [K^+]o for ˜1 hr, and then in glucose-free ACSF supplemented with 10 mM lactate or 10 mM pyruvate. […] The interburst interval increased to 24 seconds when the slice was exposed to glucose-free ACSF supplemented with 10 mM lactate, indicating an anticonvulsant effect of glucose deprivation.

[2] = tested on: kindled seizures evoked by perforant path stimulation; assay: Kindling model of temporal lobe epilepsy, perforant path stimulation; type: in vivo, rat
Description: In the kindling model, repeated activation of neural pathways in vivo induces progressive electrographic and behavioral seizures, permanent increases in susceptibility to additional seizures, and eventually spontaneous seizures (Goddard et al., 1969, Experimental Neurology 25: 295-330; Pinel, 1978, Experimental Neurology 58: 190-202; Wada et al., 1975, Canadian Journal of Neurological Sciences 2: 477-492; Sayin et al. 2003, Journal of Neuroscience 23: 2759-2768). Kindling has become the most extensively studied experimental model of epilepsy (McNamara, 1999, Nature 399: A15-22). In a typical kindling protocol, periodic stimulation delivered once or twice daily gradually evokes an increasing synchronous electrical afterdischarge (AD) or electrographic seizure accompanied by a behavioral seizure. […] Kindling can be induced by electrical or chemical activation of a variety of neural pathways in a range of species that include amphibians, mammals, and primates (Morrell and Tsuru, 1976, Electroencephalography and Clinical Neurophysiology 40: 1-11); Wada and Mizoguchi, 1984; Epilepsia 25: 278-287). Because kindling induces permanent alterations in the brain and can be evoked in a range of species by a variety of stimuli, it has been regarded as a phenomenon of long-term brain plasticity as well as a model of temporal lobe epilepsy. The behavioral features of brief repeated kindled seizures evoked by limbic stimulation resemble human partial complex seizures with secondary generalization. In the early stages of limbic kindling in rodents, each stimulation evokes an AD accompanied by a brief partial seizure, which progresses to stimulus-evoked secondary generalized seizures. This feature is an example of the progressive functional alterations induced by kindling that are epileptogenic.
Adult male Sprague-Dawley rats (weighing between 250-350 g, obtained from Harlan, Madison, Wis.) were anesthetized with ketamine (80 mg/kg intramuscularly) and xylazine (10 mg/kg intramuscularly), and were stereotactically implanted with an insulated stainless steel bipolar electrode for stimulation and recording. The electrode was implanted in the perforant path (8.1 mm posterior, 4.4 mm lateral, 3.5 mm ventral with respect to bregma), and was fixed to the skull with acrylic. After a two-week recovery period following electrode placement, unrestrained, awake, implanted rats received twice-daily kindling stimulation (5 days per week) with a one-second train of 62-Hertz (Hz) biphasic constant current 1.0-millisecond (ms) square wave pulses to induce kindled seizures. The electroencephalogram was recorded from the bipolar electrode, which was switched to the stimulator for the delivery of kindling stimulation. On the first day of stimulation, each rat received a stimulus train of 500 microAmperes (μA). If an AD was evoked, this intensity was used in subsequent stimulations. If no AD was evoked, the stimulation intensity was increased in a sequence of 500, 700, 900, 1000, 1100, 1200, 1300 and 1400 μA until an AD was evoked. The intensity that initially evoked AD was used for subsequent stimulations. […] If AD was evoked by 3 consecutive stimulations at a given intensity, the stimulation intensity was then decreased by 100 μA decrements. At stimulation intensities below 500 μA, the intensity was decreased in 30 μA decrements. These stimulation procedures deliver stimulation at the lowest intensity required to evoke an AD (Sutula and Steward, 1986, Journal of Neurophysiology 56: 732-746; Cavazos et al., 1991, Journal of Neuroscience 11: 2795-2803).
The anticonvulsant and antiepileptic effects of 2-DG were confirmed in rats that experienced kindled seizures evoked by perforant path stimulation according to the protocol noted above. […]

[3] = tested on: neuropathic pain (mechanical allodynia); assay: Loose sciatic nerve ligation model of neuropathic pain, Von Frye filament test; type: in vivo, rat
Experimental: The effects of 2-deoxy-D-glucose (2-DG), which has acute anticonvulsant properties in hippocampal slices and prevents the consequences of repeated evoked network synchronization in the kindling model of epilepsy, were evaluated for treatment of neuropathic pain. The effects of 2-DG were examined in the loose sciatic nerve ligation rat model of neuropathic pain. […] Effects of 2-DG on neuropathic pain were assessed by measurement of hindlimb withdrawal latency to mechanical stimulation and development of mechanical allodynia according to standardized methods.
Male Sprague-Dawley rats (Harlan, 250-350 g) were behaviorally tested by measuring hindlimb withdrawal latency in response to mechanical stimulation of the hindlimb with standardized Von Frye filaments of increasing diameter, in order to verify that all animals initially had normal responses prior to surgical procedures and treatments. In the Von Frye method, animals are placed on a wire mesh floor, and the hindlimb is stroked with standardized filaments of increasing diameter until withdrawal is observed. The size of the filament evoking withdrawal is the Von Frye score. Withdrawal to smaller filaments indicates hyperalgesia, or mechanical allodynia when normally innocuous filaments produce withdrawal, and are regarded as measures of pain. Baseline withdrawal scores were used to assess effects of sciatic ligation and treatment with 2-DG.
After obtaining baseline measurements, animals were then anesthetized with a combination of ketamine 70 mg/kg IP and xylazine […]. The sciatic nerve was exposed at mid-thigh level by blunt dissection through the biceps femoris muscles. […] The incision was closed in layers, and during the immediate post-operative period the animals were monitored for signs of behavior that would signify unexpected and undesirable reaction to the surgical procedure (loss of weight or appetite, lack of grooming or loss of locomotion).
Hindlimb withdrawal responses were assessed postoperatively to verify that mechanical allodynia and hyperalgesia were induced as a result of the surgical ligation. […]

Q: With `CC(O)C(=O)O` (stereo not drawn) [lactate] as the compound, how does the Interburst interval ([1]; glucose-free ACSF with 10 mM substitute energy source, 7.5 mM [K+]o, baseline in 10 mM glucose ~3.8 seconds) read?
A: 24 s

Q: Which “Synchronized bursting in presence of iodoacetate” value ([1]; 200 uM iodoacetate, ACSF with 10 mM glucose or 10 mM lactate, FIGS. 6 and 7) does the source give for `O=C(O)CI` [iodoacetate, reference compound] here?
A: reduced synchronized bursting

Q: What about the “Reduction in epileptic bursts with lactate as alternative energy source” value ([1]; iodoacetate, lactate provided, FIG. 7) of the same compound?
A: persists

Q: What does the source list for `O=CC[C@@H](O)[C@H](O)[C@H](O)CO` [2-DG, 2-deoxy-D-glucose]?
A: Duration of anticonvulsant effects after stopping 2-DG ([2]; 250 mg/kg twice daily for 3 months, twice daily stimulation continued): approximately 8 weeks; Effective dose in rats ([2]; intraperitoneal or subcutaneous administration): 250 mg/kg; Time AD threshold remained elevated after stopping twice daily 2-DG ([2]; kindled rat, 250 mg/kg IP): ≤ 6 weeks; Effect on AD threshold compared to saline controls ([2]; rats n=15 vs saline n=12, p<0.001 ANOVA, FIG. 2A): increased the AD threshold; ADs to Class 4 ([2]; rats, 2-DG 250 mg/kg IP 30 minutes before stimulation): 20.9 +/− 4.0 ADs; ADs to Class 5 (first Class V generalized tonic clonic seizure) ([2]; rats, 2-DG 250 mg/kg IP 30 minutes before stimulation, n=11, p<0.03 vs saline): 27.7±6.0 ADs and 27.7 +/− 6.0 ADs; ADs to Class 3 ([2]; rats, 2-DG 250 mg/kg IP 30 minutes before stimulation, number of afterdischarges to reach seizure class): 16.7 +/− 3.1 ADs; AD threshold during repeated 2-DG administration ([2]; single kindled rat, 250 mg/kg IP, from 200 μA, about 2-3 weeks of twice daily stimulation): ~1500 μA; AD threshold after restarting 2-DG ([2]; single kindled rat, FIG. 3, 250 mg/kg IP, rose from ~200 μAmps during 2-3 weeks): 1500 μAmps; Progressive reduction in AD threshold with repeated ADs ([2]; single rat, FIG. 3, 250 mg/kg IP prior to each stimulation, after the third evoked AD): appeared to prevent the progressive reduction in AD threshold; Burst frequency (epileptic bursts) after bath application ([1]; 1 mM 2-DG, 7.5 mM [K+]o, FIG. 4B/4C): reduction in epileptic bursts; also recorded: decreased progressively; Persistence of anticonvulsant effect after return to ACSF without 2-DG ([1]; ACSF with 7.5 mM [K+]o, FIG. 5B): ≤ 60 min; Day of administration after which pain-reducing effects diminished or were extinguished ([3]; 250 mg/kg IP): 4 to 5 days and 4 days; Motor or behavioral impairments ([3]; 250 mg/kg IP): did not result in any apparent motor or behavioral impairments; Mechanical allodynia (Von Frye score) compared to saline ([3]; 250 mg/kg IP 30 minutes prior to testing, n=10, p=0.044 day 1, p<0.001 day 2): acutely reduced mechanical allodynia
